Results reported in US8288426B2, “Pesticidal composition comprising fenamidone and an insecticide compound” (Bayer CropScience AG, priority 2006, dated 2012).

Assays:
Assay type in all cases: in vivo
Settings in all cases: mortality
[1] = test system: Spodoptera frugiperda; test: Spodoptera frugiperda - test (cabbage leaf dip, larvae)
Experimental: (§1) To produce a suitable preparation of active compound, 1 part by weight of active compound is mixed with the stated amount of solvent and emulsifier, and the concentrate is diluted with emulsifier-containing water to the desired concentration.
Cabbage leaves (Brassica oleracea) are treated by being dipped into the preparation of the active compound of the desired concentration and are infested with larvae of the fall army worm (Spodoptera frugiperda) as long as the leaves are still moist.
(§2) After the specified period of time, the mortality in % is determined. 100% means that all the caterpillars have been killed; 0% means that none of the caterpillars have been killed.

[2] = test system: Plutella xylostella; test: Plutella xylostella - test (cabbage leaf dip, larvae)
Experimental: as §1
Cabbage leaves (Brassica oleracea) are treated by being dipped into the preparation of the active compound of the desired concentration and are infested with larvae of the diamond back moth (Plutella xylostella) as long as the leaves are still moist.
as §2

[3] = test system: Spodoptera exigua; test: Spodoptera exigua - test (cabbage leaf dip, larvae)
Experimental: as §1
Cabbage leaves (Brassica oleracea) are treated by being dipped into the preparation of the active compound of the desired concentration and are infested with larvae of the beet army worm (Spodoptera exigua) as long as the leaves are still moist.
as §2

`CN/C(=N\[N+](=O)[O-])NCc1cnc(Cl)s1` [Clothianidin, clothianidin] was tested, and the “Efficacy in % after 4d” value ([1]; 4 ppm) was 0% and the “Efficacy in % after 4d” value ([2]; 4 ppm, second part of Table A) was 0%.

`N#C/N=C1\SCCN1Cc1ccc(Cl)nc1` [Thiacloprid, thiacloprid] was tested, and the “Efficacy in % after 3d” value ([3]; 100 ppm) was 10%.

With `O=[N+]([O-])NC1=NCCN1Cc1ccc(Cl)nc1` [Imidacloprid, imidacloprid] the “Efficacy in % after 3d” value ([3]; 20 ppm) was 0% and the “Efficacy in % after 4d” value ([2]; 20 ppm, first part of Table A) was 5%.

For `CN1COCN(Cc2cnc(Cl)s2)/C1=N\[N+](=O)[O-]` [Thiamethoxam, thiamethoxam], the “Efficacy in % after 4d” value ([2]; 4 ppm, first part of Table A) was 0%.

`CSC1=N[C@@](C)(c2ccccc2)C(=O)N1Nc1ccccc1` [Fenamidone, fenamidone] was tested, and the “Efficacy in % after 4d” value ([1]; 200 ppm) was 0%, the “Efficacy in % after 3d” value ([3]; 100 ppm) was 0% and the “Efficacy in % after 3d” value ([3]; 200 ppm) was 0%. For the same compound, the “Efficacy in % after 4d” value ([2]; 200 ppm, first part of Table A) was 35%, the “Efficacy in % after 4d” value ([2]; 200 ppm, second part of Table A) was 65% and the “Efficacy in % after 4d” value ([2]; 500 ppm, first part of Table A) was 75%.
